Source: publication PMC11784145, “Efficacy and in vitro pharmacological assessment of novel N-hydroxypyridinediones as hepatitis B virus ribonuclease H inhibitors” (Antimicrobial Agents and Chemotherapy, 2024)

Test system: not listed separately
Assay: Parallel artificial membrane permeability assay (PAMPA)
Type: in vitro ADME
Settings: FeSSIF pH 5
Protocol: Compound Papp values were determined by normalizing the experimental compound absorbance to the compounds’ absorbances at equilibrium, membrane porosity, buffer volume, and time (s). Two or more replicate assays were obtained on separate days for each pH.

Row | Structure (SMILES) | Avg Papp (PAMPA) [×10⁻⁶ cm/s] | Interpretation (PAMPA Papp)
1 | COc1ccc(CON=C(C)c2c(C)cc(=O)n(O)c2O)cc1OC [Compound 1669] | 56.7 | H (H: Papp > 1*10-6)

Same assay, conditions: FeSSIF pH 5, replicate 1

Row | Structure (SMILES) | Papp 1 (PAMPA) [×10⁻⁶ cm/s]
2 | COc1ccc(CON=C(C)c2c(C)cc(=O)n(O)c2O)cc1OC [Compound 1669] | 57.9

Same assay, conditions: FeSSIF pH 5, replicate 2

Row | Structure (SMILES) | Papp 2 (PAMPA) [×10⁻⁶ cm/s]
3 | COc1ccc(CON=C(C)c2c(C)cc(=O)n(O)c2O)cc1OC [Compound 1669] | 55.5

Same assay, conditions: pH 7.4

Row | Structure (SMILES) | Avg Papp (PAMPA) [×10⁻⁶ cm/s] | Interpretation (PAMPA Papp)
4 | CC(=NOCc1ccc2ccccc2c1)c1c(C)cc(=O)n(O)c1O [Compound 1811] | 3.57 | H (H: Papp > 1*10-6)
5 | CC(=NOCc1ccc(Br)cc1)c1c(C)cc(=O)n(O)c1O [Compound 1717] | 1.61 | H (H: Papp > 1*10-6)
6 | COc1ccc(CON=C(C)c2c(C)cc(=O)n(O)c2O)cc1OC [Compound 1669] | 2.12 | H (H: Papp > 1*10-6)

Same assay, conditions: pH 7.4, replicate 1

Row | Structure (SMILES) | Papp 1 (PAMPA) [×10⁻⁶ cm/s]
7 | CC(=NOCc1ccc2ccccc2c1)c1c(C)cc(=O)n(O)c1O [Compound 1811] | 1.71
8 | CC(=NOCc1ccc(Br)cc1)c1c(C)cc(=O)n(O)c1O [Compound 1717] | 1.61
9 | COc1ccc(CON=C(C)c2c(C)cc(=O)n(O)c2O)cc1OC [Compound 1669] | 2.03

Same assay, conditions: pH 7.4, replicate 2

Row | Structure (SMILES) | Papp 2 (PAMPA) [×10⁻⁶ cm/s]
10 | CC(=NOCc1ccc2ccccc2c1)c1c(C)cc(=O)n(O)c1O [Compound 1811] | 3.97
11 | CC(=NOCc1ccc(Br)cc1)c1c(C)cc(=O)n(O)c1O [Compound 1717] | 1.61
12 | COc1ccc(CON=C(C)c2c(C)cc(=O)n(O)c2O)cc1OC [Compound 1669] | 2.2

Same assay, conditions: pH 7.4, replicate 3

Row | Structure (SMILES) | Papp 3 (PAMPA) [×10⁻⁶ cm/s]
13 | CC(=NOCc1ccc2ccccc2c1)c1c(C)cc(=O)n(O)c1O [Compound 1811] | 4.02

Same assay, conditions: pH 7.4, replicate 4

Row | Structure (SMILES) | Papp 4 (PAMPA) [×10⁻⁶ cm/s]
14 | CC(=NOCc1ccc2ccccc2c1)c1c(C)cc(=O)n(O)c1O [Compound 1811] | 4.6

Test system: HBV replication (HBV plus-polarity DNA strand)
Assay: HBV replication inhibition, strand preferential qPCR in hepDES19 cells
Type: cell-based, hepatitis B virus
Settings: not given
Protocol: HBV replication inhibition was measured in hepDES19 cells following 72 h compound exposure without compound replenishment. EC50 values were determined by HBV plus-polarity strand suppression using a strand preferential qPCR assay, as described previously ([28]). Three or more replicate values were obtained on different days.

Row | Structure (SMILES) | HepDES19 SI (CC50/EC50)
15 | CC(=NOCc1ccc2ccccc2c1)c1c(C)cc(=O)n(O)c1O [Compound 1811] | 71.3
16 | CC(=NOCc1ccc(Br)cc1)c1c(C)cc(=O)n(O)c1O [Compound 1717] | 52.7
17 | COc1ccc(CON=C(C)c2c(C)cc(=O)n(O)c2O)cc1OC [Compound 1669] | 80.6

Same assay, conditions: 72 h exposure, HBV plus-polarity strand suppression, highest concentration tested 100 µM, mean ± SD, read-out: HepDES19 EC50

Row | Structure (SMILES) | EC50 [µM]
18 | CC(=NOCc1ccc2ccccc2c1)c1c(C)cc(=O)n(O)c1O [Compound 1811] | 1.4 ± 1.19
19 | CC(=NOCc1ccc(Br)cc1)c1c(C)cc(=O)n(O)c1O [Compound 1717] | 1.13 ± 0.186
20 | COc1ccc(CON=C(C)c2c(C)cc(=O)n(O)c2O)cc1OC [Compound 1669] | 1.13 ± 0.955

Test system: not listed separately
Assay: Microsome stability
Type: in vitro ADME, human
Settings: both sexes; human liver microsomes, 1 µM compound, 30 min, NADPH
Protocol: Human liver microsomes (gender pooled, 50 individuals) were purchased from BioIVT and stored at −80°C until use. […] Reactions were initiated by addition of 1.2 mM NADPH. […] Microsomal proteins were pelleted at 4,000 × g and the supernatant was analyzed via LCMS/MS. […] The ln percent remaining values were plotted against time, the negative slope was taken (k), and compound half-life (t1/2) was determined using ln2/k. Intrinsic clearance (Clint [µL/min/mg]) was calculated by (V × ln2)/t1/2, where V is the incubation volume (µL) divided by the protein concentration in the reaction (mg) ([31]).

Row | Structure (SMILES) | half-life at 1 µM [min]
21 | CC(C)c1nc(CN(C)C(=O)N[C@H](C(=O)N[C@@H](Cc2ccccc2)C[C@H](O)[C@H](Cc2ccccc2)NC(=O)OCc2cncs2)C(C)C)cs1 [Ritonavir, ritonavir, reference compound] | 23.3

Same assay, conditions: both sexes; human liver microsomes, 1 µM compound, 30 min, NADPH; read-out: Clearance (intrinsic clearance, Clint)

Row | Structure (SMILES) | microsomal CLint at 1 µM [µL/min/mg]
22 | CC(C)c1nc(CN(C)C(=O)N[C@H](C(=O)N[C@@H](Cc2ccccc2)C[C@H](O)[C@H](Cc2ccccc2)NC(=O)OCc2cncs2)C(C)C)cs1 [Ritonavir, ritonavir, reference compound] | 45.2

Test system: HepDES19 cells
Assay: not given
Settings: read-out: HepDES19 CC50; 72 h, MTS; highest concentration tested 100 µM; mean ± SD

Row | Structure (SMILES) | CC50 [µM]
23 | CC(=NOCc1ccc2ccccc2c1)c1c(C)cc(=O)n(O)c1O [Compound 1811] | 64.3 ± 25.2
24 | CC(=NOCc1ccc(Br)cc1)c1c(C)cc(=O)n(O)c1O [Compound 1717] | 76.7 ± 30.3
25 | COc1ccc(CON=C(C)c2c(C)cc(=O)n(O)c2O)cc1OC [Compound 1669] | 91 ± 15.6

Test system: not listed separately
Assay: Solubility limit, turbidimetric assay
Type: physicochemical
Settings: pH 5.0 (fed simulated intestinal fluid)
Protocol: Solubility limits were determined by a turbidimetric assay, as described ([27]), with the solubility limit being defined as the compound concentration where light scattering began to rise. Two or more replicate assays were performed for each compound at each pH on different days.

Row | Structure (SMILES) | Solubility limit category
26 | CC(=NOCc1ccc2ccccc2c1)c1c(C)cc(=O)n(O)c1O [Compound 1811] | partially soluble (partially soluble (100–1 µM))

Same assay, conditions: pH 5 (fed simulated intestinal fluid); upper limit 200 µM

Row | Structure (SMILES) | Average Sol (solubility limit) [µM]
27 | CC(=NOCc1ccc2ccccc2c1)c1c(C)cc(=O)n(O)c1O [Compound 1811] | 50
28 | CC(=NOCc1ccc(Br)cc1)c1c(C)cc(=O)n(O)c1O [Compound 1717] | 100
29 | COc1ccc(CON=C(C)c2c(C)cc(=O)n(O)c2O)cc1OC [Compound 1669] | > 200

Same assay, conditions: pH 5, replicate 1; upper limit 200 µM

Row | Structure (SMILES) | Sol 1 (solubility limit) [µM]
30 | CC(=NOCc1ccc2ccccc2c1)c1c(C)cc(=O)n(O)c1O [Compound 1811] | 50
31 | CC(=NOCc1ccc(Br)cc1)c1c(C)cc(=O)n(O)c1O [Compound 1717] | 100
32 | COc1ccc(CON=C(C)c2c(C)cc(=O)n(O)c2O)cc1OC [Compound 1669] | > 200

Same assay, conditions: pH 5, replicate 2; upper limit 200 µM

Row | Structure (SMILES) | Sol 2 (solubility limit) [µM]
33 | CC(=NOCc1ccc2ccccc2c1)c1c(C)cc(=O)n(O)c1O [Compound 1811] | 50
34 | CC(=NOCc1ccc(Br)cc1)c1c(C)cc(=O)n(O)c1O [Compound 1717] | 100
35 | COc1ccc(CON=C(C)c2c(C)cc(=O)n(O)c2O)cc1OC [Compound 1669] | > 200

Same assay, conditions: pH 6.5 (fasted simulated intestinal fluid)

Row | Structure (SMILES) | Solubility limit category
36 | CC(=NOCc1ccc(Br)cc1)c1c(C)cc(=O)n(O)c1O [Compound 1717] | partially soluble (partially soluble (100–1 µM))

Same assay, conditions: pH 6.5 (fasted simulated intestinal fluid); upper limit 200 µM

Row | Structure (SMILES) | Average Sol (solubility limit) [µM]
37 | CC(=NOCc1ccc2ccccc2c1)c1c(C)cc(=O)n(O)c1O [Compound 1811] | > 200
38 | CC(=NOCc1ccc(Br)cc1)c1c(C)cc(=O)n(O)c1O [Compound 1717] | 50
39 | COc1ccc(CON=C(C)c2c(C)cc(=O)n(O)c2O)cc1OC [Compound 1669] | > 200

Same assay, conditions: pH 6.5, replicate 1; upper limit 200 µM

Row | Structure (SMILES) | Sol 1 (solubility limit) [µM]
40 | CC(=NOCc1ccc2ccccc2c1)c1c(C)cc(=O)n(O)c1O [Compound 1811] | > 200
41 | CC(=NOCc1ccc(Br)cc1)c1c(C)cc(=O)n(O)c1O [Compound 1717] | 50
42 | COc1ccc(CON=C(C)c2c(C)cc(=O)n(O)c2O)cc1OC [Compound 1669] | > 200

Same assay, conditions: pH 6.5, replicate 2; upper limit 200 µM

Row | Structure (SMILES) | Sol 2 (solubility limit) [µM]
43 | CC(=NOCc1ccc2ccccc2c1)c1c(C)cc(=O)n(O)c1O [Compound 1811] | > 200
44 | CC(=NOCc1ccc(Br)cc1)c1c(C)cc(=O)n(O)c1O [Compound 1717] | 50
45 | COc1ccc(CON=C(C)c2c(C)cc(=O)n(O)c2O)cc1OC [Compound 1669] | > 200

Same assay, conditions: pH 6.5, replicate 3; upper limit 200 µM

Row | Structure (SMILES) | Sol 3 (solubility limit) [µM]
46 | CC(=NOCc1ccc(Br)cc1)c1c(C)cc(=O)n(O)c1O [Compound 1717] | 50

Same assay, conditions: pH 7.4 (DMEM-F12 with 10% FBS); upper limit 200 µM

Row | Structure (SMILES) | Average Sol (solubility limit) [µM]
47 | CC(=NOCc1ccc2ccccc2c1)c1c(C)cc(=O)n(O)c1O [Compound 1811] | 167
48 | CC(=NOCc1ccc(Br)cc1)c1c(C)cc(=O)n(O)c1O [Compound 1717] | 138
49 | COc1ccc(CON=C(C)c2c(C)cc(=O)n(O)c2O)cc1OC [Compound 1669] | > 200

Same assay, conditions: pH 7.4, replicate 1; upper limit 200 µM

Row | Structure (SMILES) | Sol 1 (solubility limit) [µM]
50 | CC(=NOCc1ccc2ccccc2c1)c1c(C)cc(=O)n(O)c1O [Compound 1811] | 100
51 | CC(=NOCc1ccc(Br)cc1)c1c(C)cc(=O)n(O)c1O [Compound 1717] | 50
52 | COc1ccc(CON=C(C)c2c(C)cc(=O)n(O)c2O)cc1OC [Compound 1669] | > 200

Same assay, conditions: pH 7.4, replicate 2; upper limit 200 µM

Row | Structure (SMILES) | Sol 2 (solubility limit) [µM]
53 | CC(=NOCc1ccc2ccccc2c1)c1c(C)cc(=O)n(O)c1O [Compound 1811] | > 200
54 | CC(=NOCc1ccc(Br)cc1)c1c(C)cc(=O)n(O)c1O [Compound 1717] | > 200
55 | COc1ccc(CON=C(C)c2c(C)cc(=O)n(O)c2O)cc1OC [Compound 1669] | > 200

Same assay, conditions: pH 7.4, replicate 3; upper limit 200 µM

Row | Structure (SMILES) | Sol 3 (solubility limit) [µM]
56 | CC(=NOCc1ccc2ccccc2c1)c1c(C)cc(=O)n(O)c1O [Compound 1811] | > 200
57 | CC(=NOCc1ccc(Br)cc1)c1c(C)cc(=O)n(O)c1O [Compound 1717] | > 200

Same assay, conditions: pH 7.4, replicate 4; upper limit 200 µM

Row | Structure (SMILES) | Sol 4 (solubility limit) [µM]
58 | CC(=NOCc1ccc(Br)cc1)c1c(C)cc(=O)n(O)c1O [Compound 1717] | 100
